This is an account of results in EPA's ToxValDB 9.5 (doi:10.2903/j.efsa.2009.222r).

Converted amounts (≈) assume the structure as drawn.

A word on the NOAEL: it is the highest dose or exposure tested at which no adverse effect was seen.

One data set deals with Avena sativa. The conditions noted are these: acute; duration: 21 days; other.
For the next data set, the system named is Daphnia magna. As to conditions: chronic/long-term; duration: 21 days.
A further data set concerns Tagia sp. As to conditions: acute; duration: 14 days; mortality.
A further data set relates to Pimephales promelas. The conditions noted are these: chronic/long-term.
In the next data set the test system is Lepomis macrochirus. As to conditions: acute; duration: 96 hours; mortality.
Another data set relates to Apis mellifera. As to conditions: acute; duration: 48 hours; dermal; mortality.
The next data set has as its system Aphidius rhopalosiphi. Briefly: LR50; higher = less toxic. The conditions noted are these: acute; duration: 48 hours; mortality.

Regarding `CNC(=O)ON=C(C)SC` [Methomyl], in the data set with Avena sativa, the LEL was 2250 g/ha. Also, the no observed adverse effect level (NOAEL) with Rattus norvegicus (acute, clinical chemistry) worked out at 0.25 mg/kg-day; in the data set on Rattus norvegicus (reproduction developmental, body weight), 4.6 mg/kg-day. Also, the LD50 was determined as 27.4 mg/kg-day with Rattus norvegicus (acute, oral, mortality); 24.2 mg/kg-day with Colinus virginianus (acute, oral, mortality); 0.16 µg/piece in the data set on Apis mellifera. In addition, the results for the NOEC in the data set with Daphnia magna, in the data set with Pimephales promelas and in the data set with Colinus virginianus (reproduction developmental) were 0.0016 mg/L, 0.073 mg/L and 20.3 mg/kg-day, respectively. The LC50 is 19 mg/kg with Tagia sp.; 0.63 µg/mL (≈ 3.88 µM) with Lepomis macrochirus; greater than 519 mg/kg-day in the data set on Colinus virginianus (acute, oral, diet, mortality). Also, the LR50 in the data set with Aphidius rhopalosiphi amounted to 0.25 g/ha.
